“Also recorded” adds a separate entry of the source.
What was measured:
dynamin I [1] = molecular target: T1, dynamin I (Ovis aries, UniProt A0ACI6NZN1); experiment: Dynamin I GTPase assay ([γ-32P]GTP hydrolysis); assay type: biochemical, sheep
Experimental: (§1) The plasmid for GST-Amph2-SH3 (muscle Amph2) (Butler et al., 1997) was provided by Pieto DeCamilli, Yale, Connecticut, USA, in pGEX2T vectors. The plasmid was grown in E. coli and the GST-Amph2-SH3 fusion protein was purified on glutathione (GSH)-Sepharose by elution with 10 mM reduced GSH in 20 mM Tris-HCl, pH 7.5, dialysed against the same buffer without GSH and stored at 4° C. Dynamin was purified from sheep brain by extraction from the peripheral membrane fraction of whole brain (Robinson et al., 1993) and affinity purification on GST-Amph2-SH3-sepharose as previously described (Marks and McMahon., 1998), yielding 8 mg protein from 250 g sheep brain. Recombinant dynamin II was expressed in insect cells and was a gift from Dr Sandra Schmid (Scripps, San Diego, Calif.). Recombinant dynamin I lacking the PH domain (dynamin PH, provided by Robin Scaife) was expressed in insect cells using baculoviral infection (Salim et al., 1996).
(§2) Dynamin GTPase activity was determined by hydrolysis of [ ? -^32P]GTP by a method modified from that described previously (Robinson et al., 1993). Briefly, purified dynamin I or dynamin II (0.2 μg/tube) was incubated in GTPase buffer (10 mM Tris, 10 mM NaCl, 2 mM Mg^2+, 0.05% Tween 80, pH 7.4, 1 μg/ml leupeptin and 0.1 mM PMSF) and a GTP cocktail containing 0.3 mM GTP and 1.3 μCi [ ? -^32P]-GTP in the presence or absence of varying concentrations of inhibitors or DMSO vehicle for 10 min at 30 C. The final assay volume was 40 μl. Dynamin activity was measured as either basal or phospholipid-stimulated with the addition of 5 μg/ml L-phosphatidylserine. The reaction was terminated with 100 μl of GTPase stop buffer (2% formic add, 8% acetic acid, pH 1.9), followed by 600 μl of acid-washed charcoal solution (7% charcoal in acidic solution (w/v)) and 100 μl BSA (5 mg/ml). After centrifuging for 5 min (13,000 rpm at room temperature), 200 μl of each supernatant was counted in a -counter for the release of ^32Pi from [ ? -^32P]-GTP.

dynamin I [2] = molecular target: T1, dynamin I; experiment: [α-32P]-GTP binding assay, dynamin I; design: species or system sheep
Experimental: (§3) The [α-^32P]-GTP-binding assay was performed in the wells of a 96-well microtitre plate. Dynamin (0.2 μg/well) was added to GTPase buffer and incubated for 10 min at 4 C in the dark. [α-^32P]-GTP (2 μCi/tube) was then added to the reaction and incubated for a further 10 min at 4 C. in the dark. The microtitre plate was then irradiated with a short wavelength ultraviolet lamp at […] for 30 min at a distance of 8 cm. The specificity of photolabelling was determined by comparing the labelling in the presence and absence of 1 mM cold GTP. Samples were then applied to nitrocellulose membranes by aspiration through the wells of a 24 well slot blotter. The nitrocellulose was washed 3 times with PBS and dried. Bound nucleotide was detected by a phosphorimager (Molecular Dynamics).

dynamin II = experiment: [α-32P]-GTP binding assay, dynamin II
Experimental: as §3

ΔPH domain dynamin I = experiment: GTPase assay with recombinant dynamin I lacking the PH domain; assay type: biochemical
Experimental: as §1
as §2, with “-^32P]-GTP. […]” for “-^32P]-GTP.”

Swiss 3T3 cells = experiment: Texas Red-transferrin uptake in Swiss 3T3 cells; assay type: cell-based; settings: drug added 15 or 60 minutes before Tf-TxR
Experimental: (§4) Transferrin (Tf) uptake was analysed in Swiss 3T3 and HER14 cells based on methods previously described (van der Bliek et al., 1993). Briefly, cells were plated to 60% confluency in DMEM medium plus 10% foetal calf serum after which the cells were incubated overnight (8-10 hours) in DMEM minus foetal calf serum. Texas red-transferrin (Tf-TxR, Molecular Probes, Oregon) was added to a final concentration of 5 μg/ml and the cells incubated at 37° C. for 10 minutes. Cell surface staining was removed by incubating the cells in an ice cold acid wash solution (0.2 M acetic acid +0.5 M NaCl, pH 2.8) for 15 minutes. Cells were immediately fixed with 4% paraformaldehyde for 10 minutes then washed 3 times with PBS. Nuclei were stained using DAPI (Molecular Probes, Oregon). Slides were mounted using DABCO and the fluorescence was monitored using a Leica DMLB bright field microscope and SPOT digital camera.

Ras = experiment: [α-32P]-GTP binding to small G protein Ras; settings: data not shown
Experimental: (§5) Competition of these drugs with GTP for the active site of 4 small G proteins (Rab3A, Ras, Arf2, RalA) was also tested.

Rab3A = molecular target: T2, Rab3A (Homo sapiens, UniProt P20336); experiment: [α-32P]-GTP binding to small G protein Rab3A; settings: data not shown
T2 sequence (P20336 1-220): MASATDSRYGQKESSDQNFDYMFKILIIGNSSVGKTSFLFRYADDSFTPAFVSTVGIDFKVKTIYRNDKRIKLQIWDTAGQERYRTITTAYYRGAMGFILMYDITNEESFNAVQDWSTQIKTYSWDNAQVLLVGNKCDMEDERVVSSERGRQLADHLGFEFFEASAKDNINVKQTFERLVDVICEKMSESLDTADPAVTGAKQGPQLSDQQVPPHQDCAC
Experimental: as §5

[3] = system: isolated nerve terminals (synaptosomes); experiment: Glutamate release assay (exocytosis) in synaptosomes; assay type: cell-based, rat; settings: 30 mM KCl
Experimental: The glutamate release assay was performed using enzyme-linked fluorescent detection of released glutamate (Cousin and Robinson., 2000a, b). Briefly, synaptosomes (0.6 mg in 2 ml) were resuspended in either plus (1.2 mM CaCl2) or minus (1 mM EGTA) Ca^2+ Krebs-like solution (118.5 mM NaCl, 4.7 mM KCl, 1.18 mM MgCl2, 0.1 mM Na2HPO4, 20 mM Hepes, 10 mM glucose, pH 7.4) at 37° C. Experiments were started after addition of 1 mM NADP^+. After 1 minute 50 U of glutamate dehydrogenase was added and the synaptosome suspension was stimulated after 4 minutes with 30 mM KCl. Increases in fluorescence due to production of NADPH were monitored in a Perkin-Elmer LS-50B spectrofluorimeter at 340 nm excitation and 460 nm emission. Experiments were standardised by the addition of 4 nmol of glutamate. Data is presented as Ca^2+-dependent glutamate release, calculated as the difference between release in plus and minus Ca^2+ solution for identical stimulation conditions.

RalA = molecular target: T3, RalA (Homo sapiens, UniProt P11233); experiment: [α-32P]-GTP binding to small G protein RalA; settings: data not shown
T3 sequence (P11233 1-206): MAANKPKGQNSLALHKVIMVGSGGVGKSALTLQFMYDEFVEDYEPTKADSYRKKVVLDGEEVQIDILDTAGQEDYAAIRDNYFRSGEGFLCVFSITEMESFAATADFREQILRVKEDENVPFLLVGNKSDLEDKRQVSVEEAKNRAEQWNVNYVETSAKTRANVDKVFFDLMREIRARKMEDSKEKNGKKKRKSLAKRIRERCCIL
Experimental: as §5

[4] = system: isolated nerve terminals (synaptosomes); experiment: Synaptic vesicle endocytosis, FM2-10 uptake in synaptosomes; assay type: cell-based, rat; settings: 100 μM
Experimental: Isolated nerve terminals (synaptosomes) were prepared from rat cerebral cortex by centrifugation on discontinuous percoll gradients (Dunkley et al., 1986). Fractions 3 and 4 were pooled and used in all experiments. Endocytosis was measured using uptake of the fluorescent dye FM2-10 as previously described (Cousin and Robinson 2000a). Synaptosomes (0.6 mg in 2 ml) were incubated for 5 min at 37° C. in plus or minus Ca^2+ Krebs-like solution. FM2-10 ([…]) was added 1 min before stimulation with 30 mM KCl (S1). As FM2-10 is taken up by vesicles via endocytosis at the S1 phase of stimulation, synaptosomes were incubated with antagonists during this phase. […] After 2 min of stimulation synaptosomes were washed twice in plus Ca^2+ solution containing 1 mg/ml bovine serum albumin. The washing steps remove non-internalised FM2-10 and the tyrphostins. Washed synaptosomes were resuspended in plus Ca^2+ solution at 37° C., transferred to a fluorimeter cuvette and stimulated with a standard addition of 30 mM KCl (S2). The standard S2 stimulation releases all accumulated FM2-10 and allows endocytosis to be measured as the decrease in FM2-10 fluorescence due to dye release into solution (excitation 488 nm, emission 540 nm).
Endocytosis was calculated as the decrease in absolute fluorescence stimulated by 30 mM KCl at S2. […] Retrieval efficiency is a more accurate measure of endocytosis since it takes into account the amount of prior exocytosis. Retrieval efficiency was calculated as endocytosis/exocytosis, where endocytosis is defined as above and exocytosis as Ca^2+-dependent glutamate release after 2 min of stimulation. The retrieval efficiency value was normalised to a ratio of 1.0 for 30 mM KCl.

HER14 cells = experiment: Texas Red-transferrin uptake in HER14 cells; assay type: cell-based; settings: drug added 15 or 60 minutes before Tf-TxR
Experimental: as §4

Arf2 = experiment: [α-32P]-GTP binding to small G protein Arf2; settings: data not shown
Experimental: as §5

T1 sequence (A0ACI6NZN1 entry or part of it): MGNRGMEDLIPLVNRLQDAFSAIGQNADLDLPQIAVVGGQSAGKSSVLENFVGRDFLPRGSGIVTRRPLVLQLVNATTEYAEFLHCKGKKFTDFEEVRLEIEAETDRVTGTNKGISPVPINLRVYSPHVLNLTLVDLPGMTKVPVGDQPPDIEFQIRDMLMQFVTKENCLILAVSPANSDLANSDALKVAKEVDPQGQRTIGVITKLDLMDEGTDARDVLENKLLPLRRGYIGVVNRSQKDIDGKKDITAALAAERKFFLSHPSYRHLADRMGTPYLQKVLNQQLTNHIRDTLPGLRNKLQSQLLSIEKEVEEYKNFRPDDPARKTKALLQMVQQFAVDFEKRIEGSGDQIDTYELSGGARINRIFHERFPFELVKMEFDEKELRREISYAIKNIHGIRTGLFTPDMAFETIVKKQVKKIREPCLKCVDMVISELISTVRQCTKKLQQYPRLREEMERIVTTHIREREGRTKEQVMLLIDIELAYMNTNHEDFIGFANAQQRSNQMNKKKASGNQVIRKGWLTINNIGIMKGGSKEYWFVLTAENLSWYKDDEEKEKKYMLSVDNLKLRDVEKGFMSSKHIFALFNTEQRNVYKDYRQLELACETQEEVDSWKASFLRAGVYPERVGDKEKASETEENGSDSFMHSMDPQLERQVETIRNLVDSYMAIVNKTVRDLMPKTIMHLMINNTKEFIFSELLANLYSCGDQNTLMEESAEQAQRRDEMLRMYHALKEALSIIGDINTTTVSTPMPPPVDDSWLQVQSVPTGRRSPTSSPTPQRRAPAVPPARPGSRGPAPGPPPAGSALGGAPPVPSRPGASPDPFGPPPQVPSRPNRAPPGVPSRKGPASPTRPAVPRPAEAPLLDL

## O[C@H](CS)[C@H](O)CS (racemic) [Dithiothreitol, dithiothreitol]
Dynamin I [1]; alone, data not shown
  effect on dynamin GTPase activity: without effect

## CN(C)CCCn1cc(C2=C(c3c[nH]c4ccccc34)C(=O)NC2=O)c2ccccc21 [BIM I]
Dynamin I [2]
  [α-32P]-GTP binding to dynamin I in the presence of drug: compete with GTP
Dynamin II
  [α-32P]-GTP binding to dynamin II in the presence of drug: compete with GTP
ΔPH domain dynamin I
  ability to inhibit GTPase activity of dynamin I lacking the PH domain: lost its ability to inhibit

## COc1cc(C=C(C#N)C(=O)NCCCNC(=O)C(C#N)=Cc2cc(O)c(O)c(OC)c2)cc(O)c1O [Compound 24, 2-Cyano-N-{3-[2-cyano-3-(3,4-dihydroxy-methoxyphenyl)-acryloylamino]-propyl}-3-(3,4-dihydroxy-5-methoxyphenyl)-acrylamide]
Dynamin I [1]; library 1 (dimeric) compounds
  IC50: 5 ± 1 µM

## N#C/C(=C\c1ccc(O)c(O)c1)C(=O)N1CCN(C(=O)/C(C#N)=C/c2ccc(O)c(O)c2)CC1 [Compound 71]
Dynamin I [1]; screen at ≦100 μM
  dynamin inhibition: no dynamin inhibition

## N#C/C(=C\c1ccc(O)c(O)c1)C(N)=S [tyrphostin A47]
Dynamin I [1]; freshly prepared solutions
  inhibitory potency on dynamin: no inhibitory potency
Dynamin I [1]; stocks kept at room temperature for 24 hrs
  inhibitory potency on dynamin: weak potency
Swiss 3T3 cells
  internalisation of texas-red labelled transferrin into Swiss 3T3 cells: not as dramatically as bis-tyrphostin
Ras
  effect on [α-32P]-GTP binding to Ras: neither drug affected
Dynamin I [2]
  [α-32P]-GTP binding to dynamin I in the presence of drug: not seen to decrease; also recorded: not affected
Rab3A
  effect on [α-32P]-GTP binding to Rab3A: neither drug affected
[3]
  exocytosis (Ca2+-dependent glutamate release): no effect
RalA
  effect on [α-32P]-GTP binding to RalA: neither drug affected
[4]; synaptosomes
  inhibition of synaptic vesicle endocytosis (SVE): did not
[4]; 1 indicates no drug effect
  retrieval efficiency (endocytosis/exocytosis): 0.95 (±0.05)
HER14 cells
  internalisation of texas-red labelled transferrin into HER14 cells: not as dramatically as bis-tyrphostin
Arf2
  effect on [α-32P]-GTP binding to Arf2: neither drug affected

— patent US20070225363A1, “Methods and Agents for Inhibiting Dynamin-Dependent Endocytosis” (the University of Newcastle Research Associates Ltd., priority 2003, published 2007)
